One assay has as its target T1, Human recombinant MMP-2 (Homo sapiens, UniProt P08253).
T1 construct: made in house; host or cells: MMP-2-transfected p2AHT2 cells
T1 sequence (P08253 110-660): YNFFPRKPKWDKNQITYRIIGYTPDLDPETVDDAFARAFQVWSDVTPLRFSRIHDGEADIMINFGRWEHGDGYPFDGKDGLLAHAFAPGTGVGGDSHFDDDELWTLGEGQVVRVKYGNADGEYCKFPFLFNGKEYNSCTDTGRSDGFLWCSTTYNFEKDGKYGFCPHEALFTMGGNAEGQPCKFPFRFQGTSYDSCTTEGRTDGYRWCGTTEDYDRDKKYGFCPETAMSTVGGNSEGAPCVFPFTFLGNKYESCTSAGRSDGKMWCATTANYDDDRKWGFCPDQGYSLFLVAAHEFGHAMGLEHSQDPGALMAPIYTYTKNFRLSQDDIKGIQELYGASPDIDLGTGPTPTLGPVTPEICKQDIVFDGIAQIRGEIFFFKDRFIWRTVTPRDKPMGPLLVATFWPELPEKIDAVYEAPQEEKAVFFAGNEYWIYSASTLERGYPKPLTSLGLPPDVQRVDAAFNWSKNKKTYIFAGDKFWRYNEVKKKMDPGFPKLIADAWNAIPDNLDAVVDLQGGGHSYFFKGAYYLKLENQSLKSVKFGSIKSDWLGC
Nature of the assay: In vitro MMP inhibition, IC50 determination (fluorogenic substrate I). It counts as biochemical. The following applies: value outside parentheses (Ki in parenthesis). The method, then: (§1) Several hydroxamates and salts thereof were analyzed in in vitro assays to determine their ability to inhibit the MMP cleavage of peptide substrates. Inhibition (Ki) and IC50 constants were calculated from the assayed hydroxamate-MMP interactions.
(§2) Human recombinant MMP-1, MMP-2, MMP-9, MMP-13, and MMP-14 were used in this assay. All enzymes were prepared in Assignee's laboratories following usual laboratory procedures. Protocols for the preparation and use of these enzymes are available in the scientific literature. See, e.g., Enzyme Nomenclature (Academic Press, San Diego, Calif., 1992) (and the citations therein). See also, Frije et al., J. Biol. Chem., 26(24), 16766-73 (1994).
The MMP-2 proenzyme was purified by gelatin Sepharose chromatography from MMP-2-transfected p2AHT2 cells provided by Dr. Gregory Goldberg of Washington University (St. Louis, Mo.).
(§3) All MMPs were activated using 4-aminophenylmercuric acetate (“APMA”, Sigma Chemical, St. Louis, Mo.) or trypsin. MMP-9 also was activated using human recombinant MMP-3 (purified in Assignee's laboratory following standard cloning and purification techniques).
(§4) Two fluorogenic, methoxycoumarin-containing polypeptide substrates were used in the MMP inhibition assays:
(§5) MCA-ProLeuGlyLeuDpaAlaArgNH2 (I)
(§6) Here, “Dpa” is 3-(2,4-dinitrophenyl)-L-2,3-diaminopropionyl group, and “MCA” is 7-methoxycoumarin-4-yl acetyl. Substrate (I) was purchased from Baychem (Redwood City, Calif.), and substrate II was prepared Assignee's laboratory. Substrate I was used in the IC50 determination assays, while substrate II was used in the Ki determination assays. In the absence of MMP inhibitory activity, either substrate is cleaved at the Gly-Leu peptide bond. This cleavage separates the highly fluorogenic peptide from the 2,4-dinitrophenyl quencher, thus resulting in increase of fluorescent intensity.
(§7) The stock solutions of the assayed hydroxamates (or salts thereof) were prepared in 1% dimethyl sulfoxide (DMSO). These stock solutions were diluted in Buffer A (100 mM Tris-HCl, 100 mM NaCl, 10 mM CaCl2, 0.05% polyoxyethylene 23 lauryl ether, pH 7.5) to obtain solutions with different hydroxamate concentrations, i.e., assay solutions with different concentrations of the assayed MMP inhibitory compound. The experiment controls contained the same amount of Buffer A/DMSO as the assayed sample, but contained no hydroxamate (or salt thereof).
(§8) The assays from which the IC50 determinations were made were performed as follows. The MMPs were activated with either trypsin or APMA (4-aminophenylmercuric acetate, Sigma Chemical, St. Louis, Mo.). The assayed hydroxamate samples were, incubated in Microfluorrm White Plates (Dynatech, Chantilly, VA) and analyzed on a Perkin Elmer L550 plate reader (Norwalk, Conn.). The excitation wavelength was 328 nm, and the emission wavelength—415 nm. All samples (assayed hydroxamates and controls) were incubated in separate plates at room temperature in the presence of 4 μM of MMP substrate (I). As stated in the previous paragraph, samples containing varying concentrations of the same assayed hydroxamate were prepared. Inhibition was measured as a reduction in fluorescent intensity as a function of MMP inhibitor concentration.

The target of the next assay is T2, Human recombinant MMP-13 (Homo sapiens, UniProt P45452).
T2 construct: made in house; host or cells: baculovirus / insect cells
The description is as above. It counts as biochemical. The following applies: value outside parentheses (Ki in parenthesis). The procedure: as §1, §2
The expressed proenzyme was first purified over a heparin agarose column, and then over a chelating zinc chloride column. The proenzyme was then activated by APMA for use in the assay. Further details on baculovirus expression systems may be found in, for example, Luckow et al., J. Virol., 67, 4566-79 (1993). See also, O'Reilly et al, Baculovirus Expression Vectors: A Laboratory Manual (W. H. Freeman and Co., New York, N.Y., 1992). See also, King et al., The Baculovirus Expression System: A Laboratory Guide (Chapman & Hall, London, England, 1992).
as §3, §4, §5, §6, §7, §8

Consider `COc1cc2c(cc1OC)CN(CCCCOc1ccc(S(=O)(=O)C3(C(=O)NO)CCOCC3)cc1)CC2` [Example 338], for which the IC50 on Human recombinant MMP-2 was found to be 20.6 nM; at Human recombinant MMP-13, 138 nM.
On the same counts, the results for `COc1ccc(C(=O)NCCNc2ccc(S(=O)(=O)C3(C(=O)NO)CCOCC3)cc2)cc1` [Example 339] are 1210 nM and 933 nM.
With `O=C1c2cc3ccccc3cc2C(=O)N1CCCOc1ccc(S(=O)(=O)C2(C(=O)NO)CCOCC2)cc1` [Example 343], the IC50 came out at 7700 nM at Human recombinant MMP-2 and 2.4 nM on Human recombinant MMP-13.
For `CC(C)N(Cc1ccc(C(=O)CCCCOc2ccc(S(=O)(=O)C3(C(=O)NO)CCOCC3)cc2)cc1)C(C)C` [Example 344], the results for the IC50 on Human recombinant MMP-2 and on Human recombinant MMP-13 were 12.7 nM and 4.6 nM, respectively.
Take `COc1ccc(/C(C)=C/CCCOc2ccc(S(=O)(=O)C3(C(=O)NO)CCOCC3)cc2)c(OC)c1` [Example 345]: the IC50 at Human recombinant MMP-2 was determined as 271 nM; on Human recombinant MMP-13, 14.3 nM.
For `COc1ccc(C(C)(O)CCCCOc2ccc(S(=O)(=O)C3(C(=O)NO)CCOCC3)cc2)cc1` (stereo not shown) [Example 347], the half-maximal inhibitory concentration (IC50) stood at 10.3 nM on Human recombinant MMP-2 and 1.8 nM at Human recombinant MMP-13.
As to `COc1ccc(C(=CCCCOc2ccc(S(=O)(=O)C3(C(=O)NO)CCOCC3)cc2)c2ccc(OC)cc2)cc1` [Example 349], the concentration for half-maximal inhibition (IC50) is 505 nM at Human recombinant MMP-2 and 39 nM at Human recombinant MMP-13.
As to `COc1ccc(C(=O)NCCCNc2ccc(S(=O)(=O)C3(C(=O)NO)CCOCC3)cc2)cc1` [Example 358], the figures for the IC50 at Human recombinant MMP-2 and on Human recombinant MMP-13 were 768 nM and 14.6 nM, respectively.
On to `COc1ccc(C(=O)NCCCOc2ccc(S(=O)(=O)C3(C(=O)NO)CCOCC3)cc2)cc1OC` [Example 362], for which the half-maximal inhibitory concentration (IC50) stood at 347 nM on Human recombinant MMP-2 and 3.7 nM at Human recombinant MMP-13.
`COc1ccccc1C(=O)NCCCOc1ccc(S(=O)(=O)C2(C(=O)NO)CCOCC2)cc1` [Example 363]: the IC50 at Human recombinant MMP-2 came out at 430 nM; on Human recombinant MMP-13, 7 nM.
With `O=C(NCCCOc1ccc(S(=O)(=O)C2(C(=O)NO)CCOCC2)cc1)c1ccc(-c2ccccc2)cc1` [Example 365], the IC50 was found to be 21 nM on Human recombinant MMP-2 and 0.6 nM at Human recombinant MMP-13.
Regarding `O=C(NCCCOc1ccc(S(=O)(=O)C2(C(=O)NO)CCOCC2)cc1)c1ccc2ccccc2c1` [Example 366], the IC50 on Human recombinant MMP-2 stood at 347 nM; on Human recombinant MMP-13 it was 0.3 nM.
As to `N#Cc1cccc(C(=O)NCCCOc2ccc(S(=O)(=O)C3(C(=O)NO)CCOCC3)cc2)c1` [Example 367], the results for the half-maximal inhibitory concentration (IC50) on Human recombinant MMP-2 and at Human recombinant MMP-13 were 235 nM and 4.5 nM, respectively.
Regarding `O=C(NCCCOc1ccc(S(=O)(=O)C2(C(=O)NO)CCOCC2)cc1)c1ccc([N+](=O)[O-])cc1` [Example 369], the IC50 at Human recombinant MMP-2 was 155 nM; at Human recombinant MMP-13 it was 1.5 nM.
Regarding `Cc1cc(C)c(C(=O)NCCCOc2ccc(S(=O)(=O)C3(C(=O)NO)CCOCC3)cc2)c(C)c1` [Example 370], the figures for the IC50 on Human recombinant MMP-2 and at Human recombinant MMP-13 were 900 nM and 37 nM, respectively.
The corresponding values for `O=C(NCCCOc1ccc(S(=O)(=O)C2(C(=O)NO)CCOCC2)cc1)c1ccccc1O` [Example 372] are 210 nM and 6 nM.
In the case of `CC(C)(C)c1ccc(C(=O)NCCCOc2ccc(S(=O)(=O)C3(C(=O)NO)CCOCC3)cc2)cc1` [Example 374], the results for the 50% inhibitory concentration (IC50) on Human recombinant MMP-2 and on Human recombinant MMP-13 were 800 nM and 8 nM, respectively.
Regarding `O=C(NCCCOc1ccc(S(=O)(=O)C2(C(=O)NO)CCOCC2)cc1)c1cccc2ccccc12` [Example 375], the half-inhibitory concentration (IC50) came out at 425 nM at Human recombinant MMP-2 and 17 nM at Human recombinant MMP-13.
On the same counts, the results for `COc1ccc2cc(O)c(C(=O)NCCCOc3ccc(S(=O)(=O)C4(C(=O)NO)CCOCC4)cc3)cc2c1` [Example 377] are 1270 nM and 5.9 nM.
In the case of `O=C(NCCCOc1ccc(S(=O)(=O)C2(C(=O)NO)CCOCC2)cc1)c1cc2cc(O)ccc2cc1O` [Example 378], the figures for the half-maximal inhibitory concentration (IC50) at Human recombinant MMP-2 and on Human recombinant MMP-13 were 655 nM and 2.7 nM, respectively.
For the compound `O=C(NCCCOc1ccc(S(=O)(=O)C2(C(=O)NO)CCOCC2)cc1)c1cc2cccc(O)c2cc1O` [Example 379], the figures for the IC50 at Human recombinant MMP-2 and on Human recombinant MMP-13 were 258 nM and 10 nM, respectively.
Take `COc1ccc2cc(C(=O)NCCCOc3ccc(S(=O)(=O)C4(C(=O)NO)CCOCC4)cc3)ccc2c1` [Example 380]: the results for the half-inhibitory concentration (IC50) on Human recombinant MMP-2 and at Human recombinant MMP-13 were 450 nM and 0.2 nM, respectively.
As to `O=C(NCCCOc1ccc(S(=O)(=O)C2(C(=O)NO)CCOCC2)cc1)c1ccc(Cl)nc1` [Example 381], the IC50 at Human recombinant MMP-2 is 193 nM; on Human recombinant MMP-13 it was 1.4 nM.
Take `O=C(NCCCOc1ccc(S(=O)(=O)C2(C(=O)NO)CCOCC2)cc1)c1ccccn1` [Example 382]: the figures for the IC50 at Human recombinant MMP-2 and at Human recombinant MMP-13 were 59 nM and 1.7 nM, respectively.
Regarding `O=C(NCCCOc1ccc(S(=O)(=O)C2(C(=O)NO)CCOCC2)cc1)c1ccncc1` [Example 383], the IC50 at Human recombinant MMP-2 came out at 351 nM; at Human recombinant MMP-13, 7.5 nM.
In the case of `N#Cc1ccc(C(=O)NCCCOc2ccc(S(=O)(=O)C3(C(=O)NO)CCOCC3)cc2)cc1` [Example 387], the IC50 was determined as 83 nM on Human recombinant MMP-2 and 2.2 nM on Human recombinant MMP-13.
With `O=C(NCCCOc1ccc(S(=O)(=O)C2(C(=O)NO)CCOCC2)cc1)c1ccc2ccccc2c1O` [Example 388], the 50% inhibitory concentration (IC50) was 185 nM at Human recombinant MMP-2 and 2 nM at Human recombinant MMP-13.
For `O=C(NCCCOc1ccc(S(=O)(=O)C2(C(=O)NO)CCOCC2)cc1)c1ccc2ccccc2n1` [Example 389], the IC50 on Human recombinant MMP-2 was 47 nM; on Human recombinant MMP-13 it was 0.5 nM.
On to `Cn1cccc1C(=O)NCCCOc1ccc(S(=O)(=O)C2(C(=O)NO)CCOCC2)cc1` [Example 391], for which the IC50 amounted to 900 nM at Human recombinant MMP-2 and 7 nM on Human recombinant MMP-13.
On the same counts, the results for `COc1ccc(C(=O)NCCOc2ccc(S(=O)(=O)C3(C(=O)NO)CCOCC3)cc2)cc1` [Example 393] are 50 nM and 45 nM.
As for `C[C@H](COc1ccc(S(=O)(=O)C2(C(=O)NO)CCOCC2)cc1)NC(=O)c1ccc(N(C)C)cc1` [Example 394], the 50% inhibitory concentration (IC50) is 3200 nM at Human recombinant MMP-2 and 1900 nM at Human recombinant MMP-13.
Turning to `C[C@@H](COc1ccc(S(=O)(=O)C2(C(=O)NO)CCOCC2)cc1)NC(=O)c1ccc(N(C)C)cc1` [Example 395], the IC50 on Human recombinant MMP-2 worked out at 6000 nM; at Human recombinant MMP-13, 305 nM.
For `COc1ccc(C(=O)NCCCCOc2ccc(S(=O)(=O)C3(C(=O)NO)CCOCC3)cc2)cc1` [Example 396], the IC50 at Human recombinant MMP-2 and on Human recombinant MMP-13 was 4 nM each time.
Take `CN(C)c1ccc(C(=O)NCCCCOc2ccc(S(=O)(=O)C3(C(=O)NO)CCOCC3)cc2)cc1` [Example 397]: the IC50 is 3 nM at Human recombinant MMP-2 and 14 nM on Human recombinant MMP-13.
In the case of `O=C(NCCCOc1ccc(S(=O)(=O)C2(C(=O)NO)CCOCC2)cc1)C1CCCCC1` [Example 399], the figures for the concentration for half-maximal inhibition (IC50) at Human recombinant MMP-2 and at Human recombinant MMP-13 were 650 nM and 8 nM, respectively.

By IC50 is commonly meant the concentration that gives 50% inhibition.
